Activity calls are given as the source filed them.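 The calls were made as follows: active = compounds giving half or more protection of infected cells from virus-caused growth loss, again on retest; inactive = the rest.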 Where a SMILES comes first, the peptide text is derived from it.
System: CEM cells HIV-1 protection, formazan growth assay
Test: NCI AIDS Antiviral Assay
Settings: for IC50: measured here: growth of uninfected CEM cells
Method in brief: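 Steps: treat uninfected and HIV-1-infected human CEM cells at five drug levels; quantify growth by soluble formazan; retest any compound reaching 50% protection; classify actives from the retest.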

SMILES	EC50	IC50	outcome
COc1cc2c3c([nH]c2c(OC)c1OC)CCN(Cc1ccccc1)C3	> 200 µM	66.1 µM	–
COc1cc(/C=C2\Cc3ccccc3C2=O)cc(OC)c1OC	> 23.4 µM	> 23.4 µM	–
CCOC(=O)C(C)Sc1nnc(COc2ccccc2OC)n1-c1ccccc1 (stereo not given)	> 200 µM	162 µM	–
CC(=O)OC1CC2C3(C)CC4O[C@@](C)(O)CC(C)C4[C@@]3(C)CC[C@]23C[C@@]32CC[C@H](OC3OCC(O)C(O)C3O)C(C)(C)C12 (stereo not given in full)	> 53.7 µM	22.4 µM	–
CN=c1ss/c(=N\C(=S)N(C)C)n1C	–	–	inactive
CC1(C)CC(=O)C(/C=N/c2nc(-c3ccccc3)cs2)=C(O)C1	> 200 µM	> 200 µM	–
CNC(=O)CNC(=O)CCC(=O)N(C)C	> 200 µM	> 200 µM	–
CCOC(=O)c1ccc[c]([Sb](=[O])([OH])[OH])c1	4.9 µM	398 µM	–
O=S1(=O)OCCCCO1	> 1620 µM	> 1620 µM	–
CCN(/C=C1/C(=O)C(c2ccccc2)N(c2ccccc2)C1=O)CC (stereo not given)	> 200 µM	> 200 µM	–
O=C(/C=C/c1cc2ccccc2o1)N1CCN(c2ccccn2)CC1	> 200 µM	191 µM	–
CCN(CC)CCO/N=C1\CC[C@H]2[C@@H]3CCc4cc(OC)ccc4[C@H]3CC[C@]12C	> 20 µM	2.69 µM	–
Nc1cc2c3c(cccc3c1)C(=O)N(CCN1CCCC1)C2=O	> 200 µM	1.07 µM	–
Oc1c2c(c(O)c3ccccc13)=N[C@@H](c1ccccc1)[C@H](c1ccccc1)N=2	–	–	inactive
COc1ccc(C(=O)C(c2ccc(OC)cc2)C2OC(=O)C(Cl)=C2Cl)cc1 (stereo not given)	> 17.8 µM	> 17.8 µM	–
NS(=O)(=O)c1ccc(Nc2c3ccccc3nc3c(C(=O)N4CCN(CCO)CC4)cccc23)cc1	> 43.7 µM	> 43.7 µM	–
CNC(=O)CN(CC(=O)O)C(=O)NC	> 1230 µM	> 1230 µM	–
CC1CN1P(=O)(OCCC#N)N1CC1C (stereo not given)	> 200 µM	> 200 µM	–
O=C1CC2O[C@H](c3ccccc3)OC2CO1 (stereo not given in full)	> 200 µM	93.3 µM	–
CC(=O)Nc1cc2c(cc1[N+](=O)[O-])-c1cc([N+](=O)[O-])c(NC(C)=O)cc1C2=O	> 200 µM	25.7 µM	–
CCOC(=O)c1nc2cc(Cl)ccc2[nH]c1=O	> 200 µM	105 µM	–

SMILES	EC50	IC50	outcome
CC(=O)NNc1nc(C)c(C(/C=C/c2ccc3c(c2)OCO3)=N/Nc2ccccc2)s1	> 56.2 µM	> 56.2 µM	–
CCC(C)C(NC(=O)C(CCCN=C(N)N)NC(=O)C(CC(N)=O)NC(=O)C(Cc1cnc[nH]1)NC(=O)C(N)CC(C)C)C(=O)NC(C(=O)NC(CC(C)C)C(=O)NC(C(=O)NC(Cc1cnc[nH]1)C(=O)O)C(C)O)C(C)CC (stereo not given) (H-LHNRIILTH-OH; configuration not given here)	> 44.7 µM	> 44.7 µM	–
CC(=O)OCC1OC(n2c(C)cc(-c3ccc(Cl)cc3)c(C#N)c2=S)C(OC(C)=O)C(OC(C)=O)C1OC(C)=O (stereo not given)	> 200 µM	30.2 µM	–
COc1ccccc1C1CC(c2ccccc2)=Nc2ccccc2S1 (stereo not given)	> 42.7 µM	8.13 µM	–
C[S+](C)CC(=O)c1ccc2c(c1)Sc1ccccc1O2	> 100 µM	2.04 µM	–
CC(C)C1CC[C@@H](C)C[C@@]1(O)CC(N)=O (stereo not given in full)	–	–	inactive
CC1=NN2C(=N)/C(=C/c3ccco3)C(=O)N=C2S1	> 200 µM	> 200 µM	–
CN(C)CCNC(=O)c1cccc(C(C)(C)C)c1[N+](=O)[O-]	> 200 µM	135 µM	–
COc1ccc(-c2nc(N)n(C)c2SSc2c(-c3ccc(OC)cc3)nc(N)n2C)cc1	> 45.7 µM	3.98 µM	–
Nc1nc(N)c(N=O)c(Nc2ccc(O)cc2)n1	> 200 µM	170 µM	–
CCc1nc(N)nc(C(=O)NCCNC(=O)c2nc(N)nc(CC)c2C)c1C	> 67.6 µM	> 67.6 µM	–
COc1cc2ccnc3c2c(c1OC)CC1CC(O)C(OC)CC31 (stereo not given)	–	–	inactive
O=C(Nc1ccc(F)c(Cl)c1)Nc1cc(Cl)ccc1SSc1ccc(Cl)cc1NC(=O)Nc1ccc(F)c(Cl)c1	> 66.1 µM	11.7 µM	–
CNC1c2ccccc2C(=O)c2cc3c(cc21)OCCOCCOCCOCCO3 (stereo not given)	> 200 µM	36.3 µM	–
COC1(C)CC2N(C(=O)c3ccccc3)N=C(c3ccccc3)CC2(C)O1 (stereo not given)	> 100 µM	> 100 µM	–
CC(=O)OC1CC2CCC1(C)C2(C)C (stereo not given)	> 200 µM	> 200 µM	–
Cc1nn(-c2ccccc2)c(CC(Cc2c([N+](=O)[O-])c(C)nn2-c2ccccc2)c2ccccc2)c1[N+](=O)[O-]	> 10 µM	> 10 µM	–
NC1=NS(=O)(=O)Nc2nc(-c3ccccc3)[nH]c21	> 20 µM	> 20 µM	–
C/C(=C\c1ccccn1)c1ccccn1	> 200 µM	> 200 µM	–
CC(=O)OC(C)(C)/C=C/C(=O)[C@](C)(O)[C@H]1[C@H](O)C[C@@]2(C)[C@@H]3CC=C4[C@@H](C[C@H](O)C(=O)C4(C)C)[C@]3(CO)C(=O)C[C@]12C	> 4.37 µM	0.129 µM	–
O=C1CSC(/C(=C/c2ccccc2)c2nc3ccccc3[nH]2)=N1	21.9 µM	22.4 µM	–
